Measurements from BindingDB's records for doi:10.1016/j.chembiol.2011.03.012 (Riken Advanced Science Institute, 2011).

Target: DNA topoisomerase 2-alpha (Homo sapiens, UniProt P11388)
Experiment: Inhibition Assay
Conditions: pH 7.5; 4 °C
Description: In vitro inhibition of TOP2 alpha activity by BNS derivatives.

Sequence of DNA topoisomerase 2-alpha (P11388 whole entry): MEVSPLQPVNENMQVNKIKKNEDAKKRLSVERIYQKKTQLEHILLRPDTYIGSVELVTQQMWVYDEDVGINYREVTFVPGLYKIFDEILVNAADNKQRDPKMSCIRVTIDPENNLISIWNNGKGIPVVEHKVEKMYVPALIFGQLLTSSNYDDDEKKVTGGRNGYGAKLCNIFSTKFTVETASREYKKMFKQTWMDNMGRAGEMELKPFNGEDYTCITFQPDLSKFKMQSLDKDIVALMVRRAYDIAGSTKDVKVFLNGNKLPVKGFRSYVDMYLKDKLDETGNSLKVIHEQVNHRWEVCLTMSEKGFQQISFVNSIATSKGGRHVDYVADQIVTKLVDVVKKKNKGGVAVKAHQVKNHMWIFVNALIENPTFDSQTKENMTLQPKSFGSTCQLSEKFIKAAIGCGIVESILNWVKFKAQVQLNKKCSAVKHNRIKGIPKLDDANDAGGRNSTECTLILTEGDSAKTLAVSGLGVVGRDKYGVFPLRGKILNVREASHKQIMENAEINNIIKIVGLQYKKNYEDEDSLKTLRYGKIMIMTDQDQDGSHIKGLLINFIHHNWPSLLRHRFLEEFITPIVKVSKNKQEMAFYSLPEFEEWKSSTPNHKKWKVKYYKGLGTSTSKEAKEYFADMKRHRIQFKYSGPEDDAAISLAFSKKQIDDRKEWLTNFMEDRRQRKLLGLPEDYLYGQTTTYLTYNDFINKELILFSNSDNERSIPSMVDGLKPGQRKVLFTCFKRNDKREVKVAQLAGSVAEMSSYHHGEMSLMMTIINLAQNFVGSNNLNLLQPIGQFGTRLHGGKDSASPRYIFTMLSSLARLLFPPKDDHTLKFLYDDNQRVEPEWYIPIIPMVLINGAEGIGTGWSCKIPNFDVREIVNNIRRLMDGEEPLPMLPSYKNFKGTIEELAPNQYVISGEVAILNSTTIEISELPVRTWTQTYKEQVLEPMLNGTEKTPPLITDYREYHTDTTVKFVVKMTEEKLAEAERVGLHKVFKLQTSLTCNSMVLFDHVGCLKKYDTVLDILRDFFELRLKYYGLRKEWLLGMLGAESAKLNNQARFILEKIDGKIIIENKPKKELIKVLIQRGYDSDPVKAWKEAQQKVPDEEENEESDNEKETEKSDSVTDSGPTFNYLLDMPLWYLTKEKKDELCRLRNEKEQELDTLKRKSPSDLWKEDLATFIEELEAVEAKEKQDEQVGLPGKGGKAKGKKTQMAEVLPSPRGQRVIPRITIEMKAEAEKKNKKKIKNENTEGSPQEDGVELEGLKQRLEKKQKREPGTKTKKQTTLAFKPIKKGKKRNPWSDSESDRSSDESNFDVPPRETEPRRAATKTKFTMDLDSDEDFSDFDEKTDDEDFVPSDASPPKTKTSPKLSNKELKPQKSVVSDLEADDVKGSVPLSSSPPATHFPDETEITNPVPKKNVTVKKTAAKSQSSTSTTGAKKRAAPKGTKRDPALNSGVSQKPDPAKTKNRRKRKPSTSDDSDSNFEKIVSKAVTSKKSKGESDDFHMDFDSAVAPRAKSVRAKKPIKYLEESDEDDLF

Row | Compound | IC50 [µM]
1 | CCCc1cc(=O)oc2c(C(=O)N3CCCc4ccccc43)c(OC)cc(OC)c12 [BNS-22] | 2.8
2 | CCCc1cc(=O)oc2c(C(=O)N3CCc4ccccc4C3)c(OC)cc(OC)c12 [BNS-52] | > 100
3 | CCCc1cc(=O)oc2c(C(=O)N3CCC(Cc4ccccc4)CC3)c(OC)cc(OC)c12 [BNS-53] | > 100
4 | CCCc1cc(=O)oc2c(C(=O)N3CCCCC3)c(OC)cc(OC)c12 [BNS-54] | > 100
5 | COC(=O)Cc1cc(=O)oc2c(C(=O)N3CCCc4ccccc43)c(OC)cc(OC)c12 [BNS-65] | 8.2
